Laboratory results taken from patent publication US10322995B2, “Substituted cyano cycloalkyl penta-2,4-dienes, cyano cycloalkyl pent-2-en-4-ynes, cyano heterocyclyl penta-2,4-dienes and cyano heterocyclyl pent-2-en-4-ynes as active substances against abiotic plant stress” (BAYER CROPSCIENCE AKTIENGESELLSCHAFT, priority 2014, dated 2019).

These compounds were tested against T1, phosphatase ABI1 via the co-regulator RCAR11/PYR1 (Arabidopsis thaliana, UniProt O49686+P49597) (assay: In vitro assay: inhibition of the phosphatase ABI1 via the co-regulator RCAR11/PYR1, MUP dephosphorylation, fluorescence). Settings: MUP dephosphorylation, fluorescence 460 nm; read-out: ABI1 inhibition.
T1 sequence (O49686 1-191): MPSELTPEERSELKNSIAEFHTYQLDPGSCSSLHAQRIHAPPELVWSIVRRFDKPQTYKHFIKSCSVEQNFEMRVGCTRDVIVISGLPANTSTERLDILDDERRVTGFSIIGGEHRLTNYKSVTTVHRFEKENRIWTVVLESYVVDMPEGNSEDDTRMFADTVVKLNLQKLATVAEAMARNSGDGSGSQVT
T1 sequence (P49597 1-434): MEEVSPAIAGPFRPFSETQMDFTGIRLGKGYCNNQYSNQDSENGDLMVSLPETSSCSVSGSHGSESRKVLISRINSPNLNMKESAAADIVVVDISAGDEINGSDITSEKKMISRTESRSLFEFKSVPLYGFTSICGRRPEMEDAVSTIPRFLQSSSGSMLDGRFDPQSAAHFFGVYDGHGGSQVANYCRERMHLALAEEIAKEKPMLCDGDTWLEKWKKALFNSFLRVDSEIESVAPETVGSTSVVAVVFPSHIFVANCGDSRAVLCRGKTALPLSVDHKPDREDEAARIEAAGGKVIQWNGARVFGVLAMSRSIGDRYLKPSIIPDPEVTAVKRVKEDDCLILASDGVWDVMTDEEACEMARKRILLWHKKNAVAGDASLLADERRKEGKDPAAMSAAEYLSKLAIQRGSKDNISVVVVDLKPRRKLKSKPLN
Assay type: biochemical
Parameters: inhibition: dose or concentration left out as unconfirmed
Description: Effects of the phytohormone abscisic acid (ABA) on the behaviour of plants under abiotic stress and the mechanism of action of ABA are described in the literature (cf. Abrams et al, WO97/23441, Cutler, Park et al. Science, 2009, 324, 1068; Grill et al. Science, 2009, 324, 1064; Tanokura et al. Biophysics, 2011, 7, 123; Schroeder et al. Plant J. 2010, 61, 290). Therefore, it is possible with the aid of a suitable in vitro test system to derive a correlation between the action of ABA and the stress response of a plant under abiotic stress. Under drought stress, plants form the phytohormone abscisic acid (ABA). This binds, along with a co-regulator (Regulatory Component of ABA-Receptor=RCAR according to Grill et al. Science, 2009, 324, 1064 or PYR/PYL according to Cutler et al. Science, 2009, 324, 1068), to a phosphatase (e.g. ABI1, a type 2C protein phosphatase, also abbreviated to PP2C) and inhibits its activity. As a result, a “downstream” kinase (e.g. SnRK2) is no longer dephosphorylated. This kinase, which is thus active, via phosphorylation of transcription factors (e.g. AREB/ABF, vgl. Yoshida et al., Plant J. 2010, 61, 672), switches on a genetic protection programme to increase drought stress tolerance.
The assay described hereinafter utilizes the inhibition of the phosphatase ABI1 via the co-regulator RCAR11/PYR1 aus Arabidopsis thaliana.
For the determination of activity, the dephosphorylation of 4-methylumbelliferyl phosphate (MUP) was measured at 460 nm. The in vitro assay was conducted in Greiner 384-well PS microplates F-well, using two controls: a) dimethyl sulphoxide (DMSO) 0.5% (f.c.) and b) 5 μM (f.c.) abscisic acid (ABA). […] The substance solution thus obtained, if necessary, was stirred with esterase from porcine liver (EC 3.1.1.1) at room temperature for 3 h and centrifuged at 4000 rpm for 30 min. A total volume of 45 μl was introduced into each cavity of the microplate, having the following composition: • 1) 5 μl of substance solution, i.e. a) DMSO 5% or b) abscisic acid solution or c) the corresponding example compound of the general formula (I) dissolved in 5% DMSO. • 2) 20 μl of enzyme buffer mix, composed of a) 40% by vol. of enzyme buffer (10 ml contain equal proportions by volume of 500 mM Tris-HCl pH8, 500 mM NaCl, 3.33 mM MnCl2, 40 mM dithiothreitol (DTT)), b) 4% by vol. of ABI1 dilution (protein stock solution was diluted so as to give, after addition, a final concentration in the assay of 0.15 μg ABI1/well), c) 4% by vol. of RCAR11 dilution (enzyme stock was diluted so as to give, on addition of the dilution to the enzyme buffer mix, a final concentration in the assay of 0.30 μg enzyme/well), d) 5% by vol. of Tween20 (1%), e) 47% by vol. H2O bi-dist. • 3) 20 μl of substrate mix, composed of a) 10% by vol. of 500 mM Tris-HCl pH8, b) 10% by vol. of 500 mM NaCl, c) 10% by vol. of 3.33 mM MnCl2, d) 5% by vol. of 25 mM MUP, 5% by vol. of Tween20 (1%), 60% by vol. of H2O bi-dist.
Enzyme buffer mix and substrate mix were made up 5 minutes prior to the addition and warmed to a temperature of 35° C. On completion of pipetting of all the solutions and on completion of mixing, the plate was incubated at 35° C. for 20 minutes. Finally, a relative fluorescence measurement was made at 35° C. with a BMG Labtech “POLARstar Optima” microplate reader using a 340/10 nm excitation filter and a 460 nm emission filter. The efficacy of the compounds of the general formula (I) is reported in the table which follows using abscisic acid (No. 64) as comparative substance according to the following classification: ++++ (inhibition≥90%), +++ (90%>inhibition≥70%), ++ (70%>inhibition≥50%), +(50%>inhibition≥30%).
Effects of selected compounds of the general formula (I) in the above-described in vitro assay at a concentration of 5 mM of the substance of the general formula (I) in question in a solution of DMSO and water: […]

| Compound | inhibition [%] |
| --- | --- |
| CC/C(C#CC(O)(C(C)C)C1(C#N)CC1)=C/C(=O)OCCOC (stereo not shown) [I.1-606, 2-Methoxyethyl (2Z)-6-(1-cyanocyclopropyl)-3-ethyl-6-hydroxy-7-methyloct-2-en-4-ynoate] | > 90 |
| CCOC(=O)/C=C(/C)C#CC(O)(c1ccccc1)C1(C#N)CC1 (stereo not shown) [I.1.236] | > 90 |
| CCC(=C/C(=O)OC)/C=C/C(O)(C1CCCCC1)C1(C#N)CC1 (stereo not shown) [I.2-579, Methyl (2Z,4E)-6-(1-cyanocyclopropyl)-6-cyclohexyl-3-ethyl-6-hydroxyhexa-2,4-dienoate] | > 90 |
| CCC(CC)C(O)(/C=C/C(=C\C(=O)OC)C(F)(F)F)C1(C#N)CC1 (stereo not shown) [I.2-585, Methyl (2E,4E)-6-(1-cyanocyclopropyl)-7-ethyl-6-hydroxy-3-(trifluoromethyl)nona-2,4-dienoate] | > 90 |

Same assay, conditions: concentration of 5 mM of the substance in a solution of DMSO and water; MUP dephosphorylation, fluorescence 460 nm

| Compound | ABI1 inhibition |
| --- | --- |
| CCC(C#CC(O)(c1cccc(F)c1)C1(C#N)CC1)=CC(=O)OC (racemic) [I.1-768] | ++++ (inhibition≥90%) |
| CCCC(C#CC(O)(c1cccc(F)c1)C1(C#N)CC1)=CC(=O)O (racemic) [I.1-773] | +++ (90%>inhibition≥70%) |
| COC(=O)/C=C(\C#CC(O)(C1CCCCC1)C1(C#N)CC1)C(F)(F)F (stereo not shown) [I.1-692] | +++ (90%>inhibition≥70%) |
| COC(=O)/C=C(\C#CC(O)(c1ccc(F)cc1)C1(C#N)CC1)C(F)(F)F (stereo not shown) [I.1-520] | ++++ (inhibition≥90%) |
| CCCOC(=O)/C=C(\C#CC(O)(c1ccc(F)cc1)C1(C#N)CC1)CC (stereo not shown) [I.1-613] | ++++ (inhibition≥90%) |
| CCOC(=O)C=C(C#CC(O)(C(CC)CC)C1(C#N)CC1)C(F)(F)F (racemic) [I.1-723] | +++ (90%>inhibition≥70%) |
| COC(=O)C=C(C=CC(O)(C1CCCCC1)C1(C#N)CC1)C(F)(F)F (racemic) [I.2-581] | ++++ (inhibition≥90%) |
| COC(=O)/C=C(\C#CC(O)(C1CC1)C1(C#N)CC1)C(F)(F)F (stereo not shown) [I.1-632] | ++++ (inhibition≥90%) |
| CC/C(C#CC(O)(c1ccc(F)cc1)C1(C#N)CC1)=C/C(=O)NC(C)C (stereo not shown) [I.1-558] | ++ (70%>inhibition≥50%) |
| CCOC(=O)/C=C(/C)C#CC(C)(O)C1(C#N)CC1 (stereo not shown) [I.1-36] | +++ (90%>inhibition≥70%) |
| CCOC(=O)C=C(C)C#CC(O)(c1cccc(F)c1)C1(C#N)CC1 (racemic) [I.1-792] | +++ (90%>inhibition≥70%) |
| CC(C=CC(O)(C(C)C)C1(C#N)CC1)=CC(=O)O (racemic) [I.2-134] | ++++ (inhibition≥90%) |
| CCOC(=O)C=C(C=CC(O)(C(C)C)C1(C#N)CC1)C1CCCC1 (racemic) [I.2-130] | +++ (90%>inhibition≥70%) |
| CC/C(C#CC(O)(c1ccccc1)C1(C#N)CC1)=C/C(=O)OCCOC (stereo not shown) [I.1-610] | ++++ (inhibition≥90%) |
| CCOC(=O)C=C(C#CC(O)(c1ccc(C)cc1)C1(C#N)CC1)C(F)(F)F (racemic) [I.1-813] | +++ (90%>inhibition≥70%) |
| CCOC(=O)C=C(C)C#CC(O)(c1ccc(C)cc1)C1(C#N)CC1 (racemic) [I.1-822] | +++ (90%>inhibition≥70%) |
| COC(=O)/C=C(\C#CC(O)(c1ccccc1)C1(C#N)CC1)C(F)(F)F (stereo not shown) [I.1-220] | ++++ (inhibition≥90%) |
| CC/C(C#CC(O)(c1ccc(F)cc1)C1(C#N)CC1)=C/C(=O)NC1CC1 (stereo not shown) [I.1-557] | ++ (70%>inhibition≥50%) |
| CCCOC(=O)C=C(C#CC(O)(c1ccc(C)cc1)C1(C#N)CC1)C(F)(F)F (racemic) [I.1-888] | +++ (90%>inhibition≥70%) |
| COC(=O)C=C(C#CC(O)(c1cccc(F)c1)C1(C#N)CC1)C(F)(F)F (racemic) [I.1-782] | +++ (90%>inhibition≥70%) |
| CCC(C#CC(O)(c1ccc(C)cc1)C1(C#N)CC1)=CC(=O)OCCOC (racemic) [I.1-801] | ++++ (inhibition≥90%) |
| CCOC(=O)C=C(C#CC(O)(c1cccc(F)c1)C1(C#N)CC1)C(F)(F)F (racemic) [I.1-783] | +++ (90%>inhibition≥70%) |
| CCC(C#CC(O)(c1ccc(C)cc1)C1(C#N)CC1)=CC(=O)OC (racemic) [I.1-798] | ++++ (inhibition≥90%) |
| CCOC(=O)/C=C(\C#CC(O)(c1ccccc1)C1(C#N)CC1)CC (stereo not shown) [I.1-203] | ++++ (inhibition≥90%) |
| CCCOC(=O)C=C(C=CC(O)(C1CCCCC1)C1(C#N)CC1)C(F)(F)F (racemic) [I.2-582] | ++++ (inhibition≥90%) |

Same assay, conditions: read-out: ABI1 inhibition

| Compound | inhibition [%] |
| --- | --- |
| CC1=CC(=O)CC(C)(C)[C@@]1(O)/C=C/C(C)=C\C(=O)O [abscisic acid, reference compound] | > 90 |

These compounds were tested on Brassica napus (BRSNS) (assay: In vivo analyses Part B: drought stress, appearance vs stressed control plants in categories (BRSNS)). Settings: spray application 250 g/ha, category vs stressed control plants, 2-3 pots.
Parameters: key: 0: no positive effect; 10: slight positive effect; 20: clear positive effect; 30: strong positive effect
Method: Seeds of monocotyledonous and dicotyledonous crop plants were sown in sandy loam in plastic pots, covered with soil or sand and cultivated in a greenhouse under good growth conditions. The test plants were treated at the early leaf stage (BBCH10-BBCH13). To assure uniform water supply before commencement of stress, the potted plants were supplied with water by dam irrigation prior to substance application. The inventive compounds, formulated in the form of wettable powders (WP), were sprayed onto the green parts of the plants as an aqueous suspension at an equivalent water application rate of 600 I/ha with addition of 0.2% wetting agent (e.g. agrotin). Substance application was followed immediately by stress treatment of the plants. Drought stress was induced by gradual drying out under the following conditions: “Day”: 14 hours with illumination at 26-30° C. “Night”: 10 hours without illumination at 18-20° C. The duration of the respective stress phases was guided mainly by the condition of the stressed control plants. It was ended (by re-irrigating and transfer to a greenhouse with good growth conditions) as soon as irreversible damage was observed on the stressed control plants. The end of the stress phase was followed by an about 4-7-day recovery phase, during which the plants were once again kept under good growth conditions in a greenhouse. The duration of the recovery phase was guided mainly by when the trial plants had attained a state which enabled visual scoring of potential effects, and was therefore variable. Once this juncture had been reached, the appearance of the plants treated with test substances was recorded in comparison to the stressed control plants by the following categories: [table] In order to rule out any influence on the effects observed by any fungicidal or insecticidal action of the test compounds, it was additionally ensured that the tests proceeded without fungal infection or insect infestation. For each substance and dosage, 2-3 pots were treated and evaluated. BRSNS=Brassica napus

| Compound | Effect (BRSNS) |
| --- | --- |
| CC/C(C#CC(O)(C(C)C)C1(C#N)CC1)=C/C(=O)OCCOC (stereo not shown) [I.1-606, 2-Methoxyethyl (2Z)-6-(1-cyanocyclopropyl)-3-ethyl-6-hydroxy-7-methyloct-2-en-4-ynoate] | 20 |
